{
  "source": "patent US20240390374A1",
  "about": "“MOCETINOSTAT IN COMBINATION WITH CHEMOTHERAPY TO TREAT RHABDOMYOSARCOMA” (The Regents of the University of California, priority 2021, published 2024)",
  "key": {"[1]": {"conditions": "in vivo; cited from earlier work"}, "[2]": {"conditions": "cited from earlier work"}, "[3]": {"tested_on": "advanced solid tumors", "conditions": "cited from earlier work"}, "[4]": {"biological_target": "CYP2C9 (Homo sapiens, UniProt P11712)", "sequence (P11712 whole entry)": "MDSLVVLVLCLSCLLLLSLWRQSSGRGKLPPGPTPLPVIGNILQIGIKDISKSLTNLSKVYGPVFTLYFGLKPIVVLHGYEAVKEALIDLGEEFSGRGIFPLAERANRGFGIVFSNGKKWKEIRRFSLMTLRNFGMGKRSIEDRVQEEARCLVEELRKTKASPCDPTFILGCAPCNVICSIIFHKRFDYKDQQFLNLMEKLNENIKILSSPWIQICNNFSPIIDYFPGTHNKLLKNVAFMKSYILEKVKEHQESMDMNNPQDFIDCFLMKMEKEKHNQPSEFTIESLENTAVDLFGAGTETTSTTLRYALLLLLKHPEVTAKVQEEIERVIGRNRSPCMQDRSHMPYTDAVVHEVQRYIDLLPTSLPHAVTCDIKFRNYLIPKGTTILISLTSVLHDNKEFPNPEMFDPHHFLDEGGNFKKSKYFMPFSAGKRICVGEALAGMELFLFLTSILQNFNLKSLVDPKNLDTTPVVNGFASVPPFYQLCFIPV", "conditions": "cited from earlier work"}, "[5]": {"tested_on": "solid tumors", "conditions": "three times per week, with gemcitabine; cited from earlier work"}, "[6]": {"tested_on": "Rhabdomyosarcoma cell lines", "assay": "IC50 for mocetinostat across individual cell lines from different sarcoma subtypes (FIG. 1)", "type": "cell-based"}, "[7]": {"tested_on": "refractory and/or recurrent rhabdomyosarcoma", "type": "in vivo, human", "conditions": "dose escalation phase; orally 3 times weekly with vinorelbine 25 mg/m2 IV day 1, 8, 15 of 21 day cycles", "description": "Methods: This is an investigator initiated Phase 1 single center, open-label, dose escalation/expansion clinical trial. A modified intent to treat approach is used for efficacy analysis for a target accrual of 20 subjects in the dose expansion cohort. Eligibility criteria include subjects >/=18 years old (yo) for the phase 1 dose escalation cohort and >/=12 years old for the phase 1 dose expansion cohort with a diagnosis of R/R RMS. Mocetinostat 40 mg, 70 mg or 90 mg was taken orally 3 times weekly with vinorelbine 25 mg/m2 IV on day 1,8, and 15 in 21 day cycles. PEG-filgrastim or biosimilar was added if subject experienced grade 3/4 neutropenia in a prior cycle. The maximum tolerated dose of mocetinostat in the dose escalation phase was 40 mg, which was selected as the dose for expansion cohort. Subjects were treated until disease progression by RECIST 1.1 or unacceptable toxicity."}, "[8]": {"conditions": "human, in vivo; cited from earlier work"}, "[9]": {"biological_target": "P-gp (Homo sapiens, UniProt P08183)", "sequence (P08183 whole entry)": "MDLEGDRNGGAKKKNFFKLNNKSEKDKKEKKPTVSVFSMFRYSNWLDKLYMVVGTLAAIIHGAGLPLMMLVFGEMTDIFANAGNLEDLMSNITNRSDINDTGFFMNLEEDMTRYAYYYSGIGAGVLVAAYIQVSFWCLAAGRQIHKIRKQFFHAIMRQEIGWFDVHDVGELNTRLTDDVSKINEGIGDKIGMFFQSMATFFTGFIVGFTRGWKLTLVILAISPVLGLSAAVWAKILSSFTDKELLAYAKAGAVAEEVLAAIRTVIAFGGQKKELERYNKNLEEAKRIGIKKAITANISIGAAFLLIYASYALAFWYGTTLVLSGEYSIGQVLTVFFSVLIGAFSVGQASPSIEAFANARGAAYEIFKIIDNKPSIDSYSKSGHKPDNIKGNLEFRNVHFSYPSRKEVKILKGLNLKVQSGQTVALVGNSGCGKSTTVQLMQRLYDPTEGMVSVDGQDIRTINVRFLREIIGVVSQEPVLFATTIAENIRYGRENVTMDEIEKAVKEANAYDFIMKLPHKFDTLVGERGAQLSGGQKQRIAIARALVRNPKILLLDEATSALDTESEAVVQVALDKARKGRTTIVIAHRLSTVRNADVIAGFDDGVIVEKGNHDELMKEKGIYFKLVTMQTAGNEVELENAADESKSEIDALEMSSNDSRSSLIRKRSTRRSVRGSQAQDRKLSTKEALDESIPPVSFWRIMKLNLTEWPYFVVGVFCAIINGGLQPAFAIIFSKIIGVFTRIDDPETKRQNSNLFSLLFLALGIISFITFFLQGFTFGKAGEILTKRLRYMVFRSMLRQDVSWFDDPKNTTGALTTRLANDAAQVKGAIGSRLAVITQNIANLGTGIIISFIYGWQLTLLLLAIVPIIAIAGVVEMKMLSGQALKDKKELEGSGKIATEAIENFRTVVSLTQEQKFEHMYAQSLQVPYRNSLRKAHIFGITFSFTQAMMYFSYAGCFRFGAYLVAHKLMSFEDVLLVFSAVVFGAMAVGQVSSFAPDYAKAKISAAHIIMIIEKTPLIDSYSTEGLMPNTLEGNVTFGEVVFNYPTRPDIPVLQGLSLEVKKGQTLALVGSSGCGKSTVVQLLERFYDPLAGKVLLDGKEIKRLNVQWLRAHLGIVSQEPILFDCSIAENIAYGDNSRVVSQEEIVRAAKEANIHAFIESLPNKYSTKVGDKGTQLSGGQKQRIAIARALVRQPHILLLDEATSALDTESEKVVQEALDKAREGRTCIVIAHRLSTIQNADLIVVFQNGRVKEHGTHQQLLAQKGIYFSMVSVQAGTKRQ", "conditions": "cited from earlier work"}, "[10]": {"tested_on": "CYP2E1, CYP3A, CYP2C8, CYP2C19", "conditions": "cited from earlier work"}, "[11]": {"tested_on": "follicular lymphoma and diffuse large B cell lymphoma", "conditions": "cited from earlier work"}, "[12]": {"conditions": "orally three times per week for 2 of every 3 weeks"}},
  "data": [
    {"smiles": "CCC1=C[C@@H]2CN(C1)Cc1c([nH]c3ccccc13)[C@@](C(=O)OC)(c1cc3c(cc1OC)N(C)[C@H]1[C@@](O)(C(=O)OC)[C@H](OC(C)=O)[C@]4(CC)C=CCN5CC[C@]31[C@@H]54)C2", "note": "[vinorelbine, methyl (1R,9R,10S,11R,12R,19R)-11-acetyloxy-12-ethyl-4-[(12S,14R)-16-ethyl-12-methoxycarbonyl-1,10-diazatetracyclo[12.3.1.03,11.04,9]octadeca-3(11),4,6,8,15-pentaen-12-yl]-10-hydroxy-5-methoxy-8-methyl-8,16-diazapentacyclo[10.6.1.01,9.02,7.016,19]nonadeca-2,4,6,13-tetraene-10 carboxylate]", "values": [
      {"measurement": "grade II-IV nausea and vomiting", "setting": "[1]", "result": "< 10", "unit": "%"},
      {"measurement": "grade III-IV neurotoxicity", "setting": "[1]", "result": "rare"},
      {"measurement": "stability of unopened vials", "setting": "[2]; at temperatures up to 25° C. (77° F.)", "result": "up to 72 hours"},
      {"measurement": "time diluted vinorelbine may be used", "setting": "[2]; normal room light, polypropylene syringes or polyvinyl chloride bags at 5-30° C.", "result": "up to 24 hours"}
    ]},
    {"smiles": "Nc1ccccc1NC(=O)c1ccc(CNc2nccc(-c3cccnc3)n2)cc1", "note": "[mocetinostat]", "values": [
      {"measurement": "patients with dose limiting toxicities (DLTs)", "setting": "[3]; at the 45 mg/m2/day dose", "result": 27, "unit": "%"},
      {"measurement": "PK interpatient variability", "setting": "[3]; effect of low pH beverages", "result": "interpatient variability which improved when mocetinostat was coadministered with low pH beverages"},
      {"measurement": "hematologic AEs", "setting": "[3]; human, in vivo", "result": "no hematologic AEs"},
      {"measurement": "MTD/RP2D as equivalent fixed dose", "setting": "[3]; [12]", "result": "about 90 mg/day"},
      {"measurement": "maximum tolerated dose (MTD)/recommended phase II dose (RP2D)", "setting": "[3]; [12]", "result": 45, "unit": "mg/m2/day"},
      {"measurement": "CYP2C9 inhibition", "setting": "[4]", "result": "strong CYP2C9 inhibitor"},
      {"measurement": "MTD/RP2D of mocetinostat", "setting": "[5]", "result": 90, "unit": "mg"},
      {"measurement": "IC50", "setting": "[6]", "result": "< 100", "unit": "nM"},
      {"measurement": "maximum tolerated dose of mocetinostat", "setting": "[7]", "result": 40, "unit": "mg"},
      {"measurement": "Half-life of elimination", "setting": "[8]", "result": "about 10 hours"},
      {"measurement": "accumulation with repeated dosing", "setting": "[8]", "result": "little to no accumulation"},
      {"measurement": "P-gp interaction", "setting": "[9]", "result": "a substrate and an inhibitor of P-gp"},
      {"measurement": "metabolizing enzymes", "setting": "[10]", "result": "metabolized by CYP2E1 and CYP3A and possibly by CYP2C8 and CYP2C19"},
      {"measurement": "patients with pericardial events considered related to mocetinostat", "setting": "[11]; 5 events: pericardial effusion, pericarditis, cardiac tamponade", "result": "four"},
      {"measurement": "Grade ≥3 treatment-related fatigue", "setting": "[11]; 70-110 mg three times a week", "result": 23.6, "unit": "%"},
      {"measurement": "Grade ≥3 treatment-related neutropenia", "setting": "[11]; 70-110 mg three times a week", "result": 15.3, "unit": "%"},
      {"measurement": "Grade ≥3 treatment-related thrombocytopenia", "setting": "[11]; 70-110 mg three times a week", "result": 12.5, "unit": "%"},
      {"measurement": "patients with Grade ≥3 treatment-related AEs", "setting": "[11]; 72 patients, starting doses 70-110 mg three times a week, 4 week cycles", "result": 56.9, "unit": "%"}
    ]}
  ]
}
